Test [1] deals with iNOS mRNA. Briefly: iNOS mRNA expression in LPS-stimulated RAW 264.7 cells (RT-PCR). Conditions: 20-40 μg/mL. It is filed as cell-based, murine. As for the experimental part: Doxycycline and minocycline may suppress iNOS before the synthesis of the enzyme, leading to inhibition of iNOS protein expression, specific activity and accumulation of nitrite. […] Therefore, to determine the level at which tetracycline inhibited iNOS protein expression, RAW 264.7 cells treated with LPS in the presence or absence of doxycycline and minocycline were analyzed for iNOS mRNA by semi-quantitative RT-PCR.
The presence of iNOS and β-actin mRNA in cells was analyzed by reverse transcription (RT) of total RNA followed by PCR amplification of the cDNA. The sense and antisense oligonucleotides for iNOS were, respectively, 5'-ACGGAGAAGCTTAGATCTGGAGCAGAAGTG-3'(142 to 171) (SEQ ID NO:1) and 5'-CTGCAGGTTGGACCACTGGATCCTGCCGAT-3' (767 to 796) (SEQ ID NO:2). The sense and antisense primers for β-actin were 5'-TCCTTCGTTGCCGGTCCACA-3' (44 to 63) (SEQ ID NO:3) and 5'-CGTCTCCGGAGTCCATCACA-3' (534 to 552) (SEQ ID NO:4), respectively. The predicted PCR product of the iNOS cDNA was 654 bp; that of the β-actin cDNA was 508 bp. The polymerase chain reaction was carried out in an automated DNA thermal cycle (Perkin-Elmer Cetus, Norwalk, Conn.). The total RNA was extracted using TRI-Reagent (MRC Inc., Cincinnati, Ohio). The cDNA was prepared from equal amounts (1-5 μg) of total RNA using a SuperScript™ RNase H Reverse Transcriptase (Gibco BRL, Gaithersburg, Md.). An equal amount of the cDNA was used to amplify the mRNA by PCR. PCR amplification was performed in 50 μL solution containing 1.5 mM MgCl2, 500 ng iNOS primer, 100 ng β-actin primer, 0.2 mM of each dNTP, 2.5 units of Taq DNA polymerase (Gibco). The cycle conditions for amplification of cDNA were 1 min at 94° C., 1-2 min at 55° C. and 3 min at 72° C. for 30 cycles for both iNOS and β-actin. The PCR product was analyzed by electrophoresis on 1.0% agarose gels.
RT-PCR analysis of iNOS and βactin mRNA expression in RAW 264.7 cells was carried out after stimulation with LPS±doxycycline or minocycline. […] Equal amounts of RNA were analyzed for iNOS and β-actin expression as described above.

The subject of the next test is dog models of OA. The settings on record: prophylactic administration; Yu et al. (1992); cited from earlier work.
For test [2], the system named is iNOS mRNA. Briefly: iNOS mRNA expression in LPS-stimulated RAW cells (Northern blot). The test is classed as cell-based, murine. Conditions: Mus musculus, normalized against β-actin; for inhibition at 20 µg/mL: 20 μg/mL; for inhibition at 40 µg/mL: 40 μg/mL; for inhibition at 80 µg/mL: 80 μg/mL. As for the experimental part:
Northern blot analysis of the iNOS MRNA expressed by the cells was then carried out to evaluate precisely the effect of iNOS expression in the presence of doxycycline and minocycline. The probes again were the iNOS and β-actin CDNA probes described above.
In this case, total RNA was isolated using TRI Reagent (MRC Inc., Cincinnati, Ohio). […] Briefly, 30 μg of RNA was subjected to electrophoresis in 1% agarose formaldehyde gel. The gel was then transferred via capillary action onto a nylon membrane (Zeta Probe, Bio-Rad Laboratories, Melville, N.Y.). The membrane was hybridized with [^32 P]-dCTP-labeled iNOS CDNA (4 kb SmaI fragment), a kind gift from Dr. James Cunningham (Harvard Medical School, Boston, Mass.). After hybridization, the blot was exposed to Kodak X-ray film (Kodak, Rochester, N.Y.) for 24-48 h with intensifying screens at -70° C. The β-actin probe was purchased from ClonTech (Palo Alto, Calif.) and probed as described above. Quantitation of the intensity of the iNOS/β-actin bands was performed using a phosphoimager (Molecular Dynamics, Sunnyvale, Calif.).

The subject of the next test is β-actin. Briefly: β-actin levels in LPS-activated RAW 264.7 cells (Western blot). It is filed as cell-based, murine. The settings on record: 20-80 μg/mL. As for the experimental part: RAW 264.7 cells were activated with 100 ng/mL LPS for 16-18 h, with and without doxycycline or minocycline (20-80 μg/mL) or with hydrocortisone (10 μM). Cell-free extracts were prepared as described above. The extract s were analyzed for 133 kD iNOS by Western blotting, using specific anti-iNOS antibodies.
Equal amounts of protein (25-50 μg) estimated by BCA reagent (Pierce, Rockford, Ill.) were loaded onto SDS-PAGE gels and stained to verify the concentrations of various protein fractions by examining the intensities of the protein bands on the gels. Western blot analysis was carried out from the same cell extracts. The Western-blotted membrane was probed with a specific anti-murine iNOS monoclonal antibody (Transduction Laboratories, Lexington, Ky.), as specified by the supplier. The same blot was also probed with an anti-actin antibody generously provided by Dr. James L. Lessard (Children's Hospital Medical Center, Cincinnati, Ohio). The blots were developed using the ECL Western blot system (Amersham, Arlington Heights, Ill.). Quantitation of the bands was performed using a densitometer from Molecular Dynamics (Sunnyvale, Calif.). FIG. 5 is representative.

A further test concerns cartilage. Conditions: 20-50 μg/mL; Cole et al. 1994; cited from earlier work.
In another test the target is T1, iNOS (Mus musculus, UniProt P29477).
T1 construct: prepared cell-free extracts as a source of iNOS enzyme; (cells); host or cells: RAW 264.7 murine macrophages, LPS-stimulated
Briefly: direct effect on specific activity of iNOS in cell-free extracts (L-arginine-to-L-citrulline conversion). Conditions: for effect on the specific activity of iNOS in cell-free extracts: 20-80 μg/mL, 15 min preincubation; for effect on an ongoing L-arginine-to-L-citrulline reaction catalyzed by iNOS: cell-free extracts. The test is classed as biochemical, murine. The method, then:
To evaluate the direct effect of doxycycline and minocycline on iNOS activity, we induced RAW 264.7 cells with LPS for 16 h in the absence of these agents and prepared cell-free extracts as a source of iNOS enzyme in the L-arginine-to-L-citrulline conversion assay.
Separate aliquots of the enzyme-containing cell-free extracts were preincubated for 15 min with 20-80 μg/ mL doxycycline, 20-80 μg/mL minocycline, 1 mM N-acetylimidazole and 200 μM L-NMMA, respectively, before the enzyme reaction was initiated by adding the co-factors. Various modulators including methanol (MeOH), the carrier for NAI (N-acetylimidazole), were added 15 min prior to the addition of the co-factors to initiate the iNOS reaction, as described. The specific activity was calculated and percent inhibition was compare to the original LPS-stimulated extract; 100% specific activity was 200 pmol citrulline/min/mg protein. The data shown in FIG. 4 represent one of two similar experiments.

Test [3] has as its system gelatinase in ROS 17/2.8 osteoblastic cell line. The settings on record: Vernillo et al. 1993; cited from earlier work.
A further test has as its system collagenase. The settings on record: cited from earlier work.

“Also recorded” adds a separate entry of the source. Some results are limits rather than exact numbers.

Consider `C[C@H]1c2cccc(O)c2C(O)=C2C(=O)[C@]3(O)C(O)=C(C(N)=O)C(=O)[C@@H](N(C)C)[C@@H]3[C@@H](O)[C@@H]21` [doxycycline], for which the “decrease of iNOS mRNA expression” value with iNOS mRNA [1] is reported as > 50%. Also, the “severity of OA” value in the test with dog models of OA is “markedly reduced the severity of OA”. In the test with iNOS mRNA [2], the inhibition (usually the drop in the measured response relative to a control, in per cent) at 20 µg/mL was found to be 68%; the inhibition at 40 µg/mL worked out at 75%; the inhibition at 80 µg/mL stood at 79%. The “effect on the levels of β-actin synthesis” value with β-actin is listed as “no significant effect”. Further, the “effect on proteoglycan loss and cell death” value in the test on cartilage is “blocks proteoglycan loss and reduces the cell death associated with proteoglycan loss”. At iNOS, the “effect on the specific activity of iNOS in cell-free extracts” value is listed as “minimal effect; also recorded: no significant effect” and the “effect on an ongoing L-arginine-to-L-citrulline reaction catalyzed by iNOS” value was “could not block”. For the same compound, the “IC50, gelatinase activity” value in test [3] is 20 to 30 µg/mL. Also, the anti-collagenase activity result with collagenase is “inhibits collagenase activity via direct effects on the enzyme”.

Turning to `CN(C)c1ccc(O)c2c1C[C@H]1C[C@H]3[C@H](N(C)C)C(O)=C(C(N)=O)C(=O)[C@@]3(O)C(O)=C1C2=O` [minocycline], the “decrease of iNOS mRNA expression” value in the test on iNOS mRNA [1] is reported as > 50%. In the test on iNOS mRNA [2], this compound gave an inhibition at 20 µg/mL of 39%, an inhibition at 40 µg/mL of 49% and an inhibition at 80 µg/mL of 77%. Besides, the “effect on the levels of β-actin synthesis” value in the test on β-actin is on record as “no significant effect”. Besides, at iNOS, the “effect on the specific activity of iNOS in cell-free extracts” value was “minimal effect; also recorded: no significant effect” and the “effect on an ongoing L-arginine-to-L-citrulline reaction catalyzed by iNOS” value is on record as “could not block”.
